Consider 15 compounds from patent US12139487B2, “Compounds and uses thereof” (Foghorn Therapeutics Inc., priority 2022, dated 2024).

The subject of this experiment is BRM-dependent transcription (BRG1 mutant lung cancer cell line A549). Put plainly: BRM-dependent transcription, MMTV luciferase reporter in BRG1 mutant A549 cells. The following applies: Table 11; for IC50: A549-MMTV luciferase reporter, dexamethasone induced, 6 hours; for Ratio (MDA-MMTV IC50 (μM) divided by A549-MMTV IC50 (μM)): MMTV luciferase reporter cell lines, selectivity BRG1/BRM. Format: cell-based. Put shortly:
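A549 (BRG1-mutant) cells engineered with a BRM-dependent MMTV luciferase reporter; transcription induced with dexamethasone in presence of compound at various concentrations. Luminescence read 6 h after stimulation.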
Background: A reporter such as luciferase makes a cellular process visible.

A word on the IC50: it is the concentration that inhibits the measured activity by half. Low values mean greater potency, high ones weaker potency. Regarding `CCOc1nc(C(C)(F)F)ccc1-c1ccc2cnc(CNC(=O)c3cc(F)c4c(c3)S(=O)(=O)[C@@H](F)COC4)cc2n1` [Compound 471], the IC50 turned out to be 0.0082 µM and the “Ratio (MDA-MMTV IC50 (μM) divided by A549-MMTV IC50 (μM))” value is listed as 25.44.

As to `CCOc1nn(-c2ccc3cnc(CNC(=O)c4cc(Cl)c5c(c4)S(=O)(=O)[C@@H](F)COC5)cc3n2)cc1F` [Compound 472], the “Ratio (MDA-MMTV IC50 (μM) divided by A549-MMTV IC50 (μM))” value amounted to 39.75. Where the note is “Homo sapiens, A549, 6 h”, this compound returned an IC50 of 0.011 µM.

For the compound `O=C(NCc1cc2nc(-n3cc(F)c(OC(F)F)n3)ccc2cn1)c1cc(F)c2c(c1)S(=O)(=O)[C@@H](F)COC2` [Compound 473], the “Ratio (MDA-MMTV IC50 (μM) divided by A549-MMTV IC50 (μM))” value was found to be 22.61. Also, the IC50 (Homo sapiens, A549, 6 h) was 0.0171 µM.

For the compound `O=C(NCc1cc2nc(-n3cc(F)c(OC(F)F)n3)ccc2cn1)c1cc(Cl)c2c(c1)S(=O)(=O)[C@@H](F)COC2` [Compound 474], the “Ratio (MDA-MMTV IC50 (μM) divided by A549-MMTV IC50 (μM))” value came to 42.97. In addition, the IC50 (Homo sapiens, A549, 6 h) came out at 0.0186 µM.

With `CCOc1nc([C@@H](F)CF)ccc1-c1ccc2cnc(CNC(=O)c3cc(Cl)c4c(c3)S(=O)(=O)[C@@H](F)COC4)cc2n1` [Compound 475], the “Ratio (MDA-MMTV IC50 (μM) divided by A549-MMTV IC50 (μM))” value is 37.21. This compound registered an IC50 (Homo sapiens, A549, 6 h) of 0.0071 µM.

For the compound `O=C(NCc1cc2nc(-c3ccc([C@@H](F)C(F)F)c(C4CC4)n3)ccc2cn1)c1cc(C(F)F)c2c(c1)S(=O)(=O)[C@@H](F)COC2` [Compound 476], the “Ratio (MDA-MMTV IC50 (μM) divided by A549-MMTV IC50 (μM))” value was 21.45. For the same compound, 0.0224 µM corresponded to half-maximal inhibition (Homo sapiens, A549, 6 h) (IC50).

On to `CCOc1nccc2c1OCCN2c1ccc2cnc(CNC(=O)c3cc(Cl)c4c(c3)S(=O)(=O)[C@@H](F)COC4)cc2n1` [Compound 477], for which the “Ratio (MDA-MMTV IC50 (μM) divided by A549-MMTV IC50 (μM))” value stood at 52.71. This compound also displayed an IC50 (Homo sapiens, A549, 6 h) of 0.0074 µM.

In the case of `[2H]C([2H])([2H])C([2H])([2H])Oc1nc([C@H](F)CF)ccc1-c1ccc2cnc(CNC(=O)c3cc(C(F)F)c4c(c3)S(=O)(=O)[C@@H](F)COC4)cc2n1` [Compound 478], the “Ratio (MDA-MMTV IC50 (μM) divided by A549-MMTV IC50 (μM))” value was 33.55. Where the note is “Homo sapiens, A549, 6 h”, this compound registered an IC50 of 0.0104 µM.

In the case of `[2H]C([2H])([2H])C([2H])([2H])Oc1nc([C@@H](F)CF)ccc1-c1ccc2cnc(CNC(=O)c3cc(C(F)F)c4c(c3)S(=O)(=O)[C@@H](F)COC4)cc2n1` [Compound 479], the “Ratio (MDA-MMTV IC50 (μM) divided by A549-MMTV IC50 (μM))” value is 35.46. The compound also came in with an IC50 (Homo sapiens, A549, 6 h) of 0.0062 µM.

`[2H]C([2H])([2H])Oc1ccc(-c2ccc3cnc(CNC(=O)c4cc(Br)c5c(c4)S(=O)(=O)[C@@H](F)COC5)cc3n2)nc1C1CC1(F)F` (stereo partly drawn) [Compound 480]: the “Ratio (MDA-MMTV IC50 (μM) divided by A549-MMTV IC50 (μM))” value worked out at 38.09. The IC50 (Homo sapiens, A549, 6 h) is 0.0094 µM.

With `CCOc1nc([C@H](F)CF)ccc1-c1ccc2cnc(CNC(=O)c3cc(Cl)c4c(c3)S(=O)(=O)[C@@H](F)COC4)cc2n1` [Compound 481], the midpoint of inhibition, the IC50, lay at 0.0102 µM and the “Ratio (MDA-MMTV IC50 (μM) divided by A549-MMTV IC50 (μM))” value turned out to be 50.79.

As to `O=C(NCc1cc2nc(-c3ccc([C@@H](F)C(F)F)c(C4CC4)n3)ccc2cn1)c1cc(Cl)c2c(c1)S(=O)(=O)[C@@H](F)COC2` [Compound 482], the “Ratio (MDA-MMTV IC50 (μM) divided by A549-MMTV IC50 (μM))” value came out at 25.21. Also, 0.012 µM corresponded to half-maximal inhibition (Homo sapiens, A549, 6 h) (IC50).

As for `O=C(NCc1cc2nc(-c3ccc([C@@H](F)C(F)F)c(C4CC4)n3)ccc2cn1)c1cc(Br)c2c(c1)S(=O)(=O)[C@@H](F)COC2` [Compound 483], the “Ratio (MDA-MMTV IC50 (μM) divided by A549-MMTV IC50 (μM))” value was found to be 28.21. In addition, the IC50 (Homo sapiens, A549, 6 h) came out at 0.0111 µM.

With `[2H]C([2H])([2H])OCCOc1cnc2c(c1)OCCN2c1ccc2cnc(CNC(=O)c3cc(C(F)F)c4c(c3)S(=O)(=O)[C@@H](F)COC4)cc2n1` [Compound 484], the “Ratio (MDA-MMTV IC50 (μM) divided by A549-MMTV IC50 (μM))” value was determined as 28.00. This compound also yielded an IC50 (Homo sapiens, A549, 6 h) of 0.0054 µM.

On to `[2H]C([2H])([2H])C([2H])([2H])Oc1nc([C@H](F)CF)ccc1-c1ccc2cnc(CNC(=O)c3cc(Br)c4c(c3)S(=O)(=O)[C@@H](F)COC4)cc2n1` [Compound 485], for which the “Ratio (MDA-MMTV IC50 (μM) divided by A549-MMTV IC50 (μM))” value is reported as 49.42. Moreover, where the note is “Homo sapiens, A549, 6 h”, the midpoint of inhibition, the IC50, lay at 0.012 µM.
